Measurements from ChEMBL document CHEMBL1201862, “PubChem BioAssay data set” (2004).
Active and inactive are the calls of the source.

Columns and labels:
[1] = target: Lysine-specific demethylase 4C (Homo sapiens, UniProt Q9H3R0); assay: inhibition of JMJD2C H3K9me3 demethylation – biochemical, DELFIA europium, cherry-picked samples, dose response (AID 488835); format: functional
Albumin = Albumin (Bos taurus, UniProt P02769); assay: Counterscreen for inhibitors of T-cell receptor (TCR)-CD3 interaction: Fluorescence-based biochemical high throughput dose response assay to identify inhibitors of T-cell receptor (TCR)-CD3 interaction using a TAMRA-labeled BSA probe.; format: functional
[2] = target: Heat shock protein HSP 90-alpha (Homo sapiens, UniProt P07900); format: functional, organism-based
HEK293 [3] = assay: cells; settings: Homo sapiens
HEK293 [4] = assay: cells; settings: Homo sapiens; remark: listed apart in the source
[5] = target: UDP-galactopyranose mutase (Mycobacterium tuberculosis, UniProt P9WIQ1); assay: Inhibitors of Mycobacterium tuberculosis UDP-galactopyranose mutase (UGM) enzyme Measured in Biochemical System Using Plate Reader - 2105-02_Inhibitor_Dose_CherryPick_Activity. [Related pubchem assays (depositor defined):AID504439]
[6] = target: Peroxisome proliferator-activated receptor gamma/Nuclear receptor coactivator 1 (Homo sapiens, UniProt P37231); assay: (§1) TR-FRET dose response biochemical High Throughput Screening assay for agonists of the steroid receptor coactivator 1 (SRC-1) recruitment by the peroxisome proliferator-activated receptor gamma (PPAR gamma): non-selective agonists. [Related pubchem assays (depositor defined):AID1300, AID1808, AID504735, AID631]; format: protein assay
Protein skinhead-1 = target: T1, Protein skinhead-1 (Caenorhabditis elegans, UniProt P34707); format: functional
T1 sequence (P34707 whole entry): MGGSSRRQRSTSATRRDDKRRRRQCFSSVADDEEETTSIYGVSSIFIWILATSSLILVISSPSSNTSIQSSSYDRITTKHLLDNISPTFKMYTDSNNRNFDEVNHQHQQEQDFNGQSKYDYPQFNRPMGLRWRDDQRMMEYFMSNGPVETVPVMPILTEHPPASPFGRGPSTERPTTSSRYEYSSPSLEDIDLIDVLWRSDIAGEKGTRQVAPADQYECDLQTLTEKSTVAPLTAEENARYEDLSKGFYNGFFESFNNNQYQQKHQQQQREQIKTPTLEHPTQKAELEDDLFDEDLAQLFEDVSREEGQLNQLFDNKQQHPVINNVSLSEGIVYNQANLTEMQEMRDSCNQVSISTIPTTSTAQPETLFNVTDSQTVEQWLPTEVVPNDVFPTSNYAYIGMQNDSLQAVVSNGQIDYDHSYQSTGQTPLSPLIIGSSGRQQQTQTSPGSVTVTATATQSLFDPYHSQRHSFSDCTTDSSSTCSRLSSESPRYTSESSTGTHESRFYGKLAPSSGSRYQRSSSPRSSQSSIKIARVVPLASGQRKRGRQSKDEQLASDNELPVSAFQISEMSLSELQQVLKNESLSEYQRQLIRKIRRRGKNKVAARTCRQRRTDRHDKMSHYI

[7] = target: Peroxisome proliferator-activated receptor gamma/Nuclear receptor coactivator 3 (Homo sapiens, UniProt P37231); assay: as §1, with “3 (SRC-3)” for “1 (SRC-1)”, “assays: 1301 (Confirmation screen.), 1048 (Primary screen.)]” for “assays (depositor defined):AID1300, AID1808, AID504735, AID631]”; format: functional
[8] = target: Peroxisome proliferator-activated receptor gamma/Nuclear receptor coactivator 2 (Homo sapiens, UniProt P37231); assay: TR-FRET dose response biochemical High Throughput Screening assay for agonists of the steroid receptor coactivator 2 (SRC-2) recruitment by the peroxisome proliferator-activated receptor gamma (PPAR gamma): non-selective agonists. [Related pubchem assays: 1297, 1032 ]; format: functional
CAAX prenyl protease 2 [9] = target: T2, CAAX prenyl protease 2 (Homo sapiens, UniProt Q9Y256); assay: inhibition of Ras-converting CAAX protease Rce1 – biochemical, yeast membranes, quenched-peptide fluorescence, cherry-pick, dose response (AID 588849)
T2 sequence (Q9Y256 whole entry): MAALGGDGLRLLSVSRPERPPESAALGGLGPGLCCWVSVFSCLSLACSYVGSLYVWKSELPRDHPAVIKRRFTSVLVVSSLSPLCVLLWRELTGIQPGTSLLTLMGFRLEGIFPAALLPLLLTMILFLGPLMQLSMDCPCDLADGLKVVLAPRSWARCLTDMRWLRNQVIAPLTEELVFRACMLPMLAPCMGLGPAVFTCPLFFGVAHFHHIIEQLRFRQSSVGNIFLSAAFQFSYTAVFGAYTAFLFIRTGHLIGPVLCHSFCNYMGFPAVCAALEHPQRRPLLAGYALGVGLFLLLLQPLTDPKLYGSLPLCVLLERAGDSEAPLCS

CAAX prenyl protease 2 [10] = target: T3, CAAX prenyl protease 2 (Saccharomyces cerevisiae S288c, UniProt Q03530); format: biochemical
T3 sequence (Q03530 whole entry): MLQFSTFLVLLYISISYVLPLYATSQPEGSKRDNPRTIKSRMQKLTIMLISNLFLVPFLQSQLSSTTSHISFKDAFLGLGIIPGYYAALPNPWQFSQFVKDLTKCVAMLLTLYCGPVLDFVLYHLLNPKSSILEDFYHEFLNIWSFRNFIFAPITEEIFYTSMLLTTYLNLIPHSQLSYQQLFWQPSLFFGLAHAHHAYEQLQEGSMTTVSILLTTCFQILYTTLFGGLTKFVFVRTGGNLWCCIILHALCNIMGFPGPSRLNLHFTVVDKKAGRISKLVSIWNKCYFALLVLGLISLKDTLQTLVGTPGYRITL

[11] = toxicity toward cultured mammalian cells – cell-based, plate reader, cherry-pick samples, cytotoxicity control, dose response (AID 504397); format: functional
[12] = target: Voltage-dependent T-type calcium channel subunit alpha-1H (Homo sapiens, UniProt O95180); format: functional;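 also: channel activity triggered by adding a high calcium stimulation buffer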
A-375 [13] = assay: proliferation inhibition in MITF-low A375 cells – cell-based, cherry-pick samples, set 2, counter-screen for MITF modulator project, dose response (AID 540335); format: functional; settings: Homo sapiens
A-375 [14] = assay: MITF: Counter assay: A375 proliferation Measured in Cell-Based System Using Plate Reader - 2084-03_Inhibitor_Dose_DryPowder_Activity. [Related pubchem assays (depositor defined):AID488944]; format: functional; settings: Homo sapiens
[15] = target: Hepatocyte nuclear factor 4-alpha (Homo sapiens, UniProt P41235); format: functional, cell-based;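 also: biochemical luminescence-based dose-response counterscreen measuring inhibition of HNF4 dimerization, run alongside a screen for blockers of ABHD5–perilipin-5 interaction; split luciferase complementation of HNF4 fusion proteins in cell lysate measuring dimerization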
[16] = target: T4, Microphthalmia-associated transcription factor (Homo sapiens, UniProt O75030); assay: reducers of TRPM1 reporter luminescence, concentration series – cell-based, SK-MEL-5, cherry-picked, set 3, MITF inhibitor project, dose response (AID 493073); format: functional;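 also: SK-MEL-5 melanoma cells with luciferase driven by the MITF target TRPM1 promoter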
T4 sequence (O75030 whole entry): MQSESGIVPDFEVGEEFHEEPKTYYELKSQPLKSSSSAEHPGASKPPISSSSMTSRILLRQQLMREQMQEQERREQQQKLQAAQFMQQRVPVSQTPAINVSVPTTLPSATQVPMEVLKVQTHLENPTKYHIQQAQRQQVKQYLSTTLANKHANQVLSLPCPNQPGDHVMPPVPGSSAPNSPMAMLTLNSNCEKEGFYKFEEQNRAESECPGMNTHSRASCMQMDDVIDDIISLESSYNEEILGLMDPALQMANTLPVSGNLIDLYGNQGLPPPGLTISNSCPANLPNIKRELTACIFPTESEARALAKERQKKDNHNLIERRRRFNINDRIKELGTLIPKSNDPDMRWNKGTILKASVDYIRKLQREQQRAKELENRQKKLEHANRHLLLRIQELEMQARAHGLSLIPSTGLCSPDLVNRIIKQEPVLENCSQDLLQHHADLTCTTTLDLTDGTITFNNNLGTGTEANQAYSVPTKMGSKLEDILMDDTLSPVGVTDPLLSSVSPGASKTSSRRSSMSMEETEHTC

[17] = viability loss in THP-1 monocytes – THP-1 cells, cytotoxicity control for Vif-APOBEC3G degradation inhibitor project, dose response (AID 1117359); format: functional; settings: THP-1

Chain of Lysine-specific demethylase 4C (Q9H3R0 whole entry): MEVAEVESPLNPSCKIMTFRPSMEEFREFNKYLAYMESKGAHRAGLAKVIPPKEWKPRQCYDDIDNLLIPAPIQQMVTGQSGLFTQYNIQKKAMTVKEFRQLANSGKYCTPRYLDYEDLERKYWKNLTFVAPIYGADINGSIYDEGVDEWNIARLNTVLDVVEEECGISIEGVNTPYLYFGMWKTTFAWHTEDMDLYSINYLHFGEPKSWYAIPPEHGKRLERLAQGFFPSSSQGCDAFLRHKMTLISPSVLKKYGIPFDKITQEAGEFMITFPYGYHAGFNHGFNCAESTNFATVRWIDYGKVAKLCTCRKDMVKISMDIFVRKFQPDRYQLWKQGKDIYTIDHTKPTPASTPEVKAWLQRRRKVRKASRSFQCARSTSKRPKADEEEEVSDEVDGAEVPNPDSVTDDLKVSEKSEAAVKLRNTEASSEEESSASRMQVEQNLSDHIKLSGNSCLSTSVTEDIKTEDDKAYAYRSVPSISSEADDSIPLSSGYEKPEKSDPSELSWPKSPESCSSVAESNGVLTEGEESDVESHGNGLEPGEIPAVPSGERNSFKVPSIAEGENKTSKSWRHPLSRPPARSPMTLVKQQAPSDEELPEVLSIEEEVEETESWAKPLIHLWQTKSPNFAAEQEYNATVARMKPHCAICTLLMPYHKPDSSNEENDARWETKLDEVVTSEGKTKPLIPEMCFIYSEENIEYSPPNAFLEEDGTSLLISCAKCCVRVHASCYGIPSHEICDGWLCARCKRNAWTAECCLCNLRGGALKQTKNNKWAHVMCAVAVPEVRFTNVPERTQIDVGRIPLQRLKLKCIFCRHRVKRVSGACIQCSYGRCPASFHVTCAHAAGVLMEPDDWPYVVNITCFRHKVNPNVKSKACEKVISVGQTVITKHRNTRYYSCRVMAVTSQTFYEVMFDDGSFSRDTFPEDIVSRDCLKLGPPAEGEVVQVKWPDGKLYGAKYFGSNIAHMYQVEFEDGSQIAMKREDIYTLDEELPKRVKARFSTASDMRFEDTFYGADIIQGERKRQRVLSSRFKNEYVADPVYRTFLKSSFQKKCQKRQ
Chain of Peroxisome proliferator-activated receptor gamma/Nuclear receptor coactivator 3 (P37231 whole entry): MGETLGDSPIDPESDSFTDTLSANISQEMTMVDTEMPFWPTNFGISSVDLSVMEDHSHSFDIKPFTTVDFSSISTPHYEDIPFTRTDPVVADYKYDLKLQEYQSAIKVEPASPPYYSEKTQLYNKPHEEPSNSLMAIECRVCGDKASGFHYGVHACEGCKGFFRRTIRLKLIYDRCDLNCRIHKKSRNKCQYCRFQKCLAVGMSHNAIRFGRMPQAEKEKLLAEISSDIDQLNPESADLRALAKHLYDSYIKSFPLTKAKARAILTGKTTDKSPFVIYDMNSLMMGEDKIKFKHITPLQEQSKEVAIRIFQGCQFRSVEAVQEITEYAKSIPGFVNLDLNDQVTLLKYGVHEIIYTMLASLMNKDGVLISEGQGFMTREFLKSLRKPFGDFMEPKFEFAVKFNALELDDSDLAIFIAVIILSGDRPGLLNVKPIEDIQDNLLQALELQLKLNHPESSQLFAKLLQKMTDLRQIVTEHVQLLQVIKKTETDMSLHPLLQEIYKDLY
Chain of Peroxisome proliferator-activated receptor gamma/Nuclear receptor coactivator 3 (Q9Y6Q9 whole entry, further chain): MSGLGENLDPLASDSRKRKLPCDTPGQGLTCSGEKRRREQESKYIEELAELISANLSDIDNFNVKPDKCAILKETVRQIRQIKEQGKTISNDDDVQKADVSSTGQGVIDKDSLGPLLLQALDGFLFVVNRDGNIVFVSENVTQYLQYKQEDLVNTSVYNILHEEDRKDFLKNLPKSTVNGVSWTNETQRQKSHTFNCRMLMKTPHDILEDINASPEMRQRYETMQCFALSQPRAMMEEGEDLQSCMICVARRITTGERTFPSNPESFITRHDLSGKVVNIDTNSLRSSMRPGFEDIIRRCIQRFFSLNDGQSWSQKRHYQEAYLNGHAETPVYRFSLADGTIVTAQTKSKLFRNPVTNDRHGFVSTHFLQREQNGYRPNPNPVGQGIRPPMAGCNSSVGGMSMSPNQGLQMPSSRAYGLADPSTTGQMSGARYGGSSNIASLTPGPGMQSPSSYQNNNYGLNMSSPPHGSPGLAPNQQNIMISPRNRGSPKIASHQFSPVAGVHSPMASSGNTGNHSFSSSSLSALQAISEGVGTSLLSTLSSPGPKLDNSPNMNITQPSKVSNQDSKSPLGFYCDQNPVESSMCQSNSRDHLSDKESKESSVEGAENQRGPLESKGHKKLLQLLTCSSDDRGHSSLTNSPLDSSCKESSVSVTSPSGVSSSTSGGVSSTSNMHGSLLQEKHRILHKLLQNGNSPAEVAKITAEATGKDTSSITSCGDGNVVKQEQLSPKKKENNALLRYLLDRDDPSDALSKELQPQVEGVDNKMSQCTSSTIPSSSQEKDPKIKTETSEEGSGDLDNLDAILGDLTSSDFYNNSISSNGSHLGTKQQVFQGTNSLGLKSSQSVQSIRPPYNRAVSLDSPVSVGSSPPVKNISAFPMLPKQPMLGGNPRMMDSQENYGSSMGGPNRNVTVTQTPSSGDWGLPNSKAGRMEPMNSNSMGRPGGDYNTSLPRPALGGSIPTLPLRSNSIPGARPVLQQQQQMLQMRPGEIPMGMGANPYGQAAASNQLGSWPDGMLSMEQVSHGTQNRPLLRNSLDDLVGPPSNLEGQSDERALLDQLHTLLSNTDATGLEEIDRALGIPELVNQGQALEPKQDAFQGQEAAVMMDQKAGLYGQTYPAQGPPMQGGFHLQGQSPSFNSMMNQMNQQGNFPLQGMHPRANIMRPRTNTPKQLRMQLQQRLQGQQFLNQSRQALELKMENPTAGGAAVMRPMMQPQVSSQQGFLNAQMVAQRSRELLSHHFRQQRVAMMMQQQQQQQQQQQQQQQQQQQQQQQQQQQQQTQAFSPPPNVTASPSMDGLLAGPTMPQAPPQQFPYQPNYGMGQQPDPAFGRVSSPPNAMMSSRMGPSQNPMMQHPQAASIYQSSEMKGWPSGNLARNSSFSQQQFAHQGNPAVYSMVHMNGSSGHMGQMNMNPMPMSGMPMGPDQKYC
Chain of Peroxisome proliferator-activated receptor gamma/Nuclear receptor coactivator 2 (P37231 whole entry): as the sequence (P37231 whole entry) above
Chain of Peroxisome proliferator-activated receptor gamma/Nuclear receptor coactivator 2 (Q15596 whole entry, further chain): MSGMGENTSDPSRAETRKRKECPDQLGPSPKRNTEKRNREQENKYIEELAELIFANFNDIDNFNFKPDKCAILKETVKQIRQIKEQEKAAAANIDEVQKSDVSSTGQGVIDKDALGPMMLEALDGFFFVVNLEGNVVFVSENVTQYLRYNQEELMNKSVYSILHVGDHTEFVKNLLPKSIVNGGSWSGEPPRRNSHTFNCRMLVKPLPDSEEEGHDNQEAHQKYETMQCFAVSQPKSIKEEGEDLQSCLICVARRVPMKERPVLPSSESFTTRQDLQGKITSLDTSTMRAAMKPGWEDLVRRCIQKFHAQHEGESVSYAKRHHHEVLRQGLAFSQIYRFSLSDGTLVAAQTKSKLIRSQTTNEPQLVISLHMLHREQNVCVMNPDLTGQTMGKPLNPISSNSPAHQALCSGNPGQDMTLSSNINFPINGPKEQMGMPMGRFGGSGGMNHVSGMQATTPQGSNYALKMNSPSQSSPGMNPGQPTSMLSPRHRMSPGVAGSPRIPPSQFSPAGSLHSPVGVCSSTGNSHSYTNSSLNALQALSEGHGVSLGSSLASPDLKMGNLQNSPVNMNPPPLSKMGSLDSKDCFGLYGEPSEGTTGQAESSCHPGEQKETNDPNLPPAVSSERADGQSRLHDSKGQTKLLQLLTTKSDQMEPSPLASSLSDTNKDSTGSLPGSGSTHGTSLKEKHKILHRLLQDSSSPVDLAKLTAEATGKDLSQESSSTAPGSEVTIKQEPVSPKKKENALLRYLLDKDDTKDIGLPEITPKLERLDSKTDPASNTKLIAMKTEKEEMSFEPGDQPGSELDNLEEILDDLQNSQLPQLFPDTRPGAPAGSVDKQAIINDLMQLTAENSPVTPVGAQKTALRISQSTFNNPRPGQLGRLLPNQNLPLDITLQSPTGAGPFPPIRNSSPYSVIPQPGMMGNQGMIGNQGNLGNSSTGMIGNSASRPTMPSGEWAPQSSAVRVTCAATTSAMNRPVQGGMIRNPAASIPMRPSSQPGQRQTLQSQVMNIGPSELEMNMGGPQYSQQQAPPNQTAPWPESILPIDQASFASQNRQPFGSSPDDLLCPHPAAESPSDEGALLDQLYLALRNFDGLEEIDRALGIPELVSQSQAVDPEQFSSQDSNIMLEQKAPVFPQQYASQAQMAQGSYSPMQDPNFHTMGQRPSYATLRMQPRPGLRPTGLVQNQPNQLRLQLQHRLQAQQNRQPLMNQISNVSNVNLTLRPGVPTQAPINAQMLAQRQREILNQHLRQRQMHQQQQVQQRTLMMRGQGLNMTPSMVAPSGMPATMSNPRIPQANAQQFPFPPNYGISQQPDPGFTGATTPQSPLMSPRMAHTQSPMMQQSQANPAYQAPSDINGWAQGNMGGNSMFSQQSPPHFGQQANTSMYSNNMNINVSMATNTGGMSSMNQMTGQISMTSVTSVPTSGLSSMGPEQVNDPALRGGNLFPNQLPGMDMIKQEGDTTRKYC

O=C(NNC(=O)C1CCN(S(=O)(=O)c2ccccc2)CC1)c1ccccc1O
AC50 [1]: 6.67 µM (active) | IC50 (Albumin): > 94.1 µM (inactive)

O=C(C=Cc1ccccn1)c1ccccc1O
AC50 [2]: 2.37 µM (active) | EC50 (HEK293 [3]): > 59.6 µM (inactive) | EC50 (HEK293 [4]): > 59.6 µM (inactive)

Cc1cc(C(C)(C)C)cc(S(=O)(=O)Nc2ccc(C(=O)O)cc2)c1C
AC50 [5]: 0.201 µM (active)

Brc1cc(Br)c2nc(-c3cccs3)ccc2c1
EC50 [6]: 34.7 µM (inactive) | IC50 (Protein skinhead-1): > 100 µM (inactive) | EC50 [7]: 47.9 µM (not active) | EC50 [8]: 30 µM (not active)

O=C(Nc1ccc(S(=O)(=O)Nc2ccccc2)cc1)C1COc2ccccc2O1 (stereo not given)
AC50 (CAAX prenyl protease 2 [9]): 65.5 µM (active) | AC50 (CAAX prenyl protease 2 [10]): 4.26 µM (active) | AC50 [11]: 120 µM (active) | EC50 [12]: 3.37 µM (active)

Cc1ccc(SCc2cn3cc(Cl)ccc3n2)cc1
AC50 (A-375 [13]): > 35 µM (active) | AC50 (A-375 [14]): > 35 µM (active)

O=C1NC(=O)N(Cc2ccc(F)cc2)C(=O)/C1=C\C=C\c1ccco1
IC50 [15]: 1.87 µM (active) | AC50 [1]: 7.02 µM (active) | AC50 [16]: 6.63 µM (active) | CC50 [17]: 28.9 µM (active)
